Reference: article PMC6344423, “Opposing Actions of Adrenocorticotropic Hormone and Glucocorticoids on UCP1-Mediated Respiration in Brown Adipocytes” (Frontiers in Physiology, 2019)
pEC50: −log10 of the molar value.

What was measured:
[1] = system: Ucp1 mRNA in primary white adipocytes; assay: Ucp1 gene expression analysis (qRT-PCR), white adipocytes; assay type: cell-based, mouse; conditions: two different doses of ACTH, iWAT adipocytes, normalized to Gtf2b, n = 4, Figure 3B
Procedure: (§1) Total RNA was isolated using Trisure (Bioline) and purified with SV total RNA Isolation System (Promega). Reverse transcriptase reactions were performed using SensiFAST cDNA Synthesis Kit (Bioline). Quantitative real-time PCR (qRT-PCR) was performed with SYBR green fluorescent dye in 384-well format using LightCycler 480 (Roche). General Transcription Factor IIB (Gtf2b) served as an internal control. To be able to calculate relative gene expression levels of samples, standard reactions containing serial diluted pooled cDNA of all samples (Pure, 1:2, 1:4, 1:8, 1:16, 1:32 and 1:64) as a template were used to establish a standard curve. The RNA abundance of Ucp1 gene was normalized to the housekeeping gene Gtf2b. The following primers were used: […]

[2] = system: Ucp1 gene expression in primary brown adipocytes of Ucp1^ki/ki mice; assay: Luciferase assay, FLUC activity as surrogate for Ucp1 expression; assay type: cell-based, mouse; conditions: overnight stimulation, normalized to total protein content, n = 3, Figure 1D
Procedure: After overnight stimulation of primary brown adipocytes of Ucp1^ki/ki mice luciferase activity was assayed using a commercial kit system (Luciferase Assay System Freezer Pack E4030, Promega GmbH). Primary cells were lysed in 1x reporter lysis buffer by shaking for 20 min at room temperature. 10 μl lysate was mixed with 50 μl luciferase assay substrate solution, and the mixture was measured by FB12 in a luminometer (Single Tube Luminometer, Titertek-Berthold GmbH). Bioluminescence readouts were normalized to total protein content.
We then measured FLUC activity in primary brown adipocytes from Ucp1^ki/ki reporter gene mice to determine the effect of the GsPCR ligands on Ucp1 gene expression in response to overnight stimulation. As the expression of Fluc in these cells is driven by Ucp1promoter, FLUC activity served as a surrogate for Ucp1 expression.

[3] = system: primary brown adipocytes of UCP1^-/-; assay: Respirometry in primary brown adipocytes of UCP1^-/- mice; assay type: cell-based, mouse; conditions: ACTH 1 μM, n = 3, Figure 2G
Procedure: Oxygen consumption of primary brown adipocytes was measured at 37°C using microplate-based respirometry (XF96 extracellular flux analyzer, Seahorse Bioscience) as described previously ([Li et al., 2014b]) following the subsequent protocol at day 7 of differentiation. Prior to the respiration measurement, primary cells were washed with warmed, unbuffered assay medium (DMEM basal medium supplemented with 25 mM glucose, 31 mM NaCl, 2 mM GlutaMax and 15 mg/l phenol red, pH 7.4) (basal assay medium). Subsequent to the medium replacement with basal assay medium containing 1–2% essentially fatty acid free bovine serum albumin (BSA), cells were incubated at 37°C in a CO2-free incubator for 1 h. Assay reagents were loaded into the drug injections ports of the sensor cartridges at 10X in basal assay medium (no BSA). After assessment of basal oxygen consumption in untreated cells oligomycin (5 μM) was injected to inhibit coupled respiration and to determine basal leak respiration. […] By the addition of FCCP (1 μM) maximal respiratory capacity was determined. Lastly, non-mitochondrial oxygen consumption was assessed by blocking mitochondrial respiration with antimycin A (5 μM). […] Oxygen consumption rates were automatically calculated by the Seahorse XF-96 software. […] Results are predominately expressed as stimulated respiration which is calculated as fold increase of basal leak.

[4] = system: Ucp1 mRNA in primary brown adipocytes; assay: Ucp1 gene expression analysis (qRT-PCR), brown adipocytes; assay type: cell-based, mouse
Procedure: as §1

[5] = system: cytosolic cAMP in primary brown adipocytes; assay: Quantification of cellular cAMP (cAMP-Glo Assay); assay type: cell-based, mouse
Procedure: Changes in cytosolic cAMP concentrations were determined in primary brown adipocytes in response to ACTH- or isoproterenol stimulation using cAMP-Glo Assay (Promega) following the manufacturer’s instructions.

[6] = system: primary brown adipocytes; assay: Microplate-based respirometry (XF96), UCP1-mediated uncoupled respiration; assay type: cell-based, mouse
Procedure: Oxygen consumption of primary brown adipocytes was measured at 37°C using microplate-based respirometry (XF96 extracellular flux analyzer, Seahorse Bioscience) as described previously ([Li et al., 2014b]) following the subsequent protocol at day 7 of differentiation. Prior to the respiration measurement, primary cells were washed with warmed, unbuffered assay medium (DMEM basal medium supplemented with 25 mM glucose, 31 mM NaCl, 2 mM GlutaMax and 15 mg/l phenol red, pH 7.4) (basal assay medium). Subsequent to the medium replacement with basal assay medium containing 1–2% essentially fatty acid free bovine serum albumin (BSA), cells were incubated at 37°C in a CO2-free incubator for 1 h. Assay reagents were loaded into the drug injections ports of the sensor cartridges at 10X in basal assay medium (no BSA). After assessment of basal oxygen consumption in untreated cells oligomycin (5 μM) was injected to inhibit coupled respiration and to determine basal leak respiration. Next, effector was added to investigate UCP1-dependant uncoupled respiration. By the addition of FCCP (1 μM) maximal respiratory capacity was determined. Lastly, non-mitochondrial oxygen consumption was assessed by blocking mitochondrial respiration with antimycin A (5 μM). For some experiments, cells were pretreated for 1 h with 50 μM H89 (PKA inhibitor), 1–100 μM propranolol (β-adrenergic receptor antagonist), 40 μM Atglistatin (ATGL inhibitor) and 40 μM Hi76-0079 (HSL inhibitor) 1 h prior to the measurement. Oxygen consumption rates were automatically calculated by the Seahorse XF-96 software. Each experiment was repeated at least three times with similar results and five to eight replicate wells for every condition in each independent experiment. Results are predominately expressed as stimulated respiration which is calculated as fold increase of basal leak.
In our first screen, we tested whether these GsPCR ligands can activate oxygen consumption acutely in brown adipocytes. UCP1-mediated uncoupled respiration was quantified in cultured adherent intact primary brown adipocytes, according to a protocol established in our lab ([Li et al., 2014b]). After recording basal respiration and the fraction of coupled and uncoupled respiration, UCP1-dependent respiration was measured. Finally, maximal respiratory capacity and non-mitochondrial oxygen consumption were assessed by adding the uncoupling agent carbonyl cyanide 4-(trifluoromethoxy) phenylhydrazone (FCCP) and antimycin A was added to block the electron transport chain, respectively. All respiration assays were performed in the presence of BSA to buffer free fatty acid (FFA) levels in the respiration medium.

[7] = system: T37i cells; conditions: ref Iwen et al., 2008, van den Beukel et al., 2014; cited from earlier work
Description: (§2) The melanocortins ACTH and α-MSH are known for their lipolytic action in rodent adipocytes, as first reported in 1958 ([Lafontan, 2012]; [Braun et al., 2018]). […] ACTH enhanced BAT function in obese rats ([York and Al-Baker, 1984]), and increased glucose transport and respiration in isolated brown adipocytes ([Marette and Bukowiecki, 1990]) via fatty acid activation of mitochondrial uncoupled respirati ...

[8] = system: immortalized murine adipocytes; conditions: ref Iwen et al., 2008, van den Beukel et al., 2014; cited from earlier work
Description: as §2

[9] = system: BAT; conditions: supraphysiological dose, 15 μM ACTH; ref van den Beukel et al., 2014; cited from earlier work
Description: as §2

[10] = dose–response experiment, Figure 2A

For “ACTH: Murine ACTH(1-39), 39 amino acid peptide hormone, ligand for the melanocortin 2 receptor (MC2R) (SYSMEHFRWGKPVGKKRRPVKVYPNVAENESAEAFPLEF; Corticotropin; UniProt P01193 124-162, looked up)”, which “Ucp1 mRNA levels, differentiated white adipocytes” value [1] is on record?
The value was “dose-dependent increase in Ucp1 mRNA levels”.

And the “FLUC (luciferase) activity as surrogate for Ucp1 expression” value [2]?
Its value is “moderate rise in FLUC activity”.

What about the “ACTH-stimulated respiration in UCP1^-/- compared to UCP1^+/+ cells” value [3] of the same substance?
Its value is “attenuated in primary brown adipocytes of UCP1^-/-”.

And the “Maximal induction of Ucp1 mRNA relative to ISO” value ([4]; 1 μM ACTH vs ISO 500 nM, Figures 3A,B)?
Its value is “comparable to the effect of ISO treatment”.

What about the “Ucp1 mRNA levels, differentiated brown adipocytes” value ([4]; two different doses of ACTH, normalized to Gtf2b, n = 4, Figure 3A) of the same substance?
The value was “dose-dependent increase in Ucp1 mRNA levels”.

What about the “Cytosolic cAMP levels after ACTH stimulation” value ([5]; increasing concentrations, 30 min, n = 3, Figure 2D) of the same substance?
Its value is “dose-dependent increase of cytosolic cAMP levels”.

And the pEC50 ([5]; stimulation for 30 min, n = 3, non-linear regression, Figure 2D)?
The pEC50 was 5.83.

What about the “ACTH concentration that stimulated respiration (fold increase over basal leak respiration)” value [6, 10] of the same substance?
The value was 200 nM.

What about the “ACTH concentration with the most robust effect on stimulated respiration” value [6, 10] of the same substance?
The value was 1 µM.

And the “Stimulated respiration (UCP1-dependent uncoupled respiration) as fold increase of basal leak respiration, GsPCR ligand screen” value ([6]; primary brown adipocytes (129S6 mice), acute addition after oligomycin 5 μM, medium with 1–2% fatty acid free BSA, 37°C, n = 5, Figures 1B,C)?
Its value is “most prominent induction of UCP1-dependant uncoupled respiration”.

What about the “ACTH concentration at which adipocytes respond in cell culture” value [7] of the same substance?
Its value is 50 nM.

And the “ACTH concentration at which adipocytes respond in cell culture” value [8]?
Its value is 100 nM.

What about the “Glucose uptake into BAT” value [9] of the same substance?
The value was “increased glucose uptake into BAT”.
